How the values were obtained:
[1] = Subset analysis of subjects on extended release CBZ twice daily: predicted IV vs observed oral steady-state Cmax, Cmin, AUC; format: in vivo, human; conditions: N=47; for AUC: human, plasma
Method: A subset analysis of the subject data (n=47), including only those subjects taking extended release (ER) formulations of CBZ twice daily (as indicated by the product label), was performed to compare predicted maximum and minimum exposures of CBZ at steady-state administered via IV infusion to those observed following oral administration. CBZ concentration-time profiles following IV administration will differ from oral administration to the greatest extent for subjects on ER products, since these products provide formulation dependent control of the concentration-time profile. Subjects on extended release formulations experience the least fluctuation in concentrations and will maintain higher relative trough concentrations compared to any non-extended release product. Thus, the analysis in this subset gives a conservative assessment of potential differences in peak and trough exposures following IV administration. This analysis included calculations of predicted Cmax, Cmin, and AUCss values of CBZ for subjects predicted to be at steady-state on IV therapy.

[2] = human, in vivo, po
Method: (§1) Indwelling catheters were placed into the arms of test subjects. A single 100 mg dose of stable-labeled (non-radioactive) CBZ (SL-CBZ) was then infused over 10 minutes. At the end of the infusion, the subject's usual morning dose of oral CBZ, less 100 mg, was administered. Blood pressure, heart rate and rhythm, and infusion site discomfort were monitored during and for an hour after the infusion. […] Unbound CBZ was measured following ultrafiltration. CBZ concentration-time data were analyzed using a non-compartmental approach with the pharmacokinetic software, WinNONLIN.
(§2) A validated LC-MS assay for SL-CBZ, CBZ and their respective epoxide metabolites was used. […] CBZ was assayed similar to that described by Osterloh and Bertilsson. […] After shaking and centrifugation, the organic layer was removed and evaporated under nitrogen gas to dryness. Each sample was then redissolved with the addition of 25 microliters of ethyl acetate. Plasma samples were measured for unbound and total CBZ, CBZ glucuronide and CBZ-E by LCMS. Unbound drug was separated from the bound fraction by ultrafiltration. The mobile phase consists of 50% 0.05 M ammonium acetate buffer, pH 4.7, 50% MeOH at a flow rate of 0.4 ml/min, on a reverse phase C-18 column.

[3] = clinical; conditions: human, in vivo
Method: as §1, §2

[4] = immediate release and extended release tablets; previously estimated; cited from earlier work
[5] = Steady-state trough concentrations, oral observed vs IV predicted by the method of superposition; format: in vivo, human
Method: The most relevant factor in considering the dose adjustment for intravenously administered CBZ is for treatment centers to maintain plasma concentrations of CBZ above the therapeutic threshold. Following administration of 100 mg of IV CBZ, observed plasma concentrations followed a […] decay indicating a very fast distribution to tissues followed by a slower elimination of drug out of the body. Steady-state plasma concentrations of IV CBZ were predicted using the method of superposition. Plasma concentrations following a single dose of IV CBZ were scaled-up to steady-state conditions, assuming linear pharmacokinetics, using an accumulation ratio, a mean F of 0.7, and correcting for dose (see Equations 1 and 2). As a result, this calculation allows for a comparison of steady-state trough plasma concentrations following oral (Co and IV (C6 hr) administration of CBZ respectively assuming a dosing interval of once every six hours for the IV formulation.
[formula] Where Cpss(IV) is the plasma concentration (C) at steady state for IV administration; CpsD is the plasma concentration after a single dose; Int is the y-intercept resulting from linear regression of the elimination phase; λ is the terminal elimination rate constant; Dpo is the total oral daily dose; DIV is the single IV dose; F is the absolute bioavailability; T is the dosing interval; and t is the time of each observed concentration.

[6] = 5th Percentile, observed, ER products twice daily
[7] = 5th Percentile, predicted, IV every 6 hours
[8] = 95th Percentile, observed, ER products twice daily
[9] = 95th Percentile, predicted, IV every 6 hours
[10] = Maximum, observed, ER products twice daily
[11] = Maximum, predicted, IV every 6 hours
[12] = Median, observed, ER products twice daily
[13] = Median, predicted, IV every 6 hours
[14] = Minimum, observed, ER products twice daily
[15] = Minimum, predicted, IV every 6 hours

For `NC(=O)N1c2ccccc2C=Cc2ccccc21` [Carbamazepine, 5H-dibenz[b,f]azepine-5-carboxamide], the “Oral Cmaxss” value [1, 6] was 4980 ng/mL, the “Oral Cminss” value [1, 6] was 4320 ng/mL and the “IV CmaxSS (mean F = 0.7)” value [1, 7] was 4800 ng/mL. The “IV CminSS (mean F = 0.7)” value [1, 7] was 2480 ng/mL, the “Oral Cmaxss” value [1, 8] was 14600 ng/mL and the “Oral Cminss” value [1, 8] was 14550 ng/mL. For the same molecule, the “IV CmaxSS (mean F = 0.7)” value [1, 9] was 24140 ng/mL, the “IV CminSS (mean F = 0.7)” value [1, 9] was 18640 ng/mL and the “Oral Cmaxss” value [1, 10] was 17100 ng/mL. The “Oral Cminss” value [1, 10] was 16690 ng/mL, the “IV CmaxSS (mean F = 0.7)” value [1, 11] was 47000 ng/mL and the “IV CminSS (mean F = 0.7)” value [1, 11] was 41040 ng/mL. The “IV CmaxSS (mean F = 0.7)” value ([1]; Maximum, predicted, IV every 6 hours, listed as CBZ) was 47000 ng/mL, the “Oral Cmaxss” value ([1]; Mean ± SD, observed, ER products (Carbatrol, Tegretol XR) twice daily, highest observed concentration, sparse sampling) was 9920 ± 2990 ng/mL and the “Oral Cminss” value ([1]; Mean ± SD, observed, ER products twice daily) was 9320 ± 2930 ng/mL. The “IV CminSS (mean F = 0.7)” value ([1]; Mean ± SD, predicted, IV every 6 hours) was 8630 ± 6850 ng/mL, the “IV CmaxSS (mean F = 0.7)” value ([1]; Mean ± SD, predicted, scaled from 100 mg single IV dose over 10 minutes, every 6 hours) was 11750 ± 7900 ng/mL and the “IV CmaxSS (mean F = 0.7)” value ([1]; Mean ± SD, predicted, scaled from 100 mg single IV dose over 10 minutes, every 6 hours, listed as CBZ) was 11750 ng/mL. The “Oral Cmaxss” value [1, 12] was 9810 ng/mL, the “Oral Cminss” value [1, 12] was 9440 ng/mL and the “IV CmaxSS (mean F = 0.7)” value [1, 13] was 9930 ng/mL. The “IV CminSS (mean F = 0.7)” value [1, 13] was 6500 ng/mL, the “Oral Cmaxss” value [1, 14] was 2890 ng/mL and the “Oral Cminss” value [1, 14] was 2890 ng/mL. For the same molecule, the “IV CmaxSS (mean F = 0.7)” value [1, 15] was 3170 ng/mL, the “IV CminSS (mean F = 0.7)” value [1, 15] was 1650 ng/mL and the AUC ([1]; iv, 5th Percentile, predicted, IV every 6 hours, read-out: IV AUCSS (mean F = 0.7)) was 43100 ng·h/mL. For the same molecule, the AUC ([1]; iv, 95th Percentile, predicted, IV every 6 hours, read-out: IV AUCSS (mean F = 0.7)) was 257000 ng·h/mL, the AUC ([1]; iv, Maximum, predicted, IV every 6 hours, read-out: IV AUCSS (mean F = 0.7)) was 551000 ng·h/mL and the AUC ([1]; iv, Mean ± SD, predicted, IV every 6 hours, read-out: IV AUCSS (mean F = 0.7)) was 122000 ± 90900 ng·h/mL. For the same molecule, the AUC ([1]; iv, Median, predicted, IV every 6 hours, read-out: IV AUCSS (mean F = 0.7)) was 93700 ng·h/mL, the AUC ([1]; iv, Minimum, predicted, IV every 6 hours, read-out: IV AUCSS (mean F = 0.7)) was 26900 ng·h/mL and the AUC ([1]; po, 5th Percentile, observed, ER products, 12 hour dosing interval, read-out: Oral AUCss) was 50100 ng·h/mL. The AUC ([1]; po, 95th Percentile, observed, ER products, 12 hour dosing interval, read-out: Oral AUCss) was 146000 ng·h/mL, the AUC ([1]; po, Maximum, observed, ER products, 12 hour dosing interval, read-out: Oral AUCss) was 168000 ng·h/mL and the AUC ([1]; po, Mean ± SD, observed, ER products, 12 hour dosing interval, read-out: Oral AUCss) was 96800 ± 28100 ng·h/mL. For the same molecule, the AUC ([1]; po, Median, observed, ER products, 12 hour dosing interval, read-out: Oral AUCss) was 96000 ng·h/mL, the AUC ([1]; po, Minimum, observed, ER products, 12 hour dosing interval, read-out: Oral AUCss) was 28500 ng·h/mL and the “calculated mean F value” [2] was 75%. The “median F value” [2] was 67%, the AUC ([3]; iv, 100 mg, AUC 0-° o) was 36500 ng·h/mL and the clearance ([3]; iv, CL) was 0.6 mL/min/kg. It also gave an AUC ([3]; po, AUCss (po)) of 87200 ng·h/mL, a bioavailability ([3]; po, absolute bioavailability of oral CBZ during maintenance therapy centers around) of 70 to 75% and a bioavailability ([3]; po, average oral bioavailability) of 65 to 75%. The absolute bioavailability [4] was 75-85, the “statistical comparison of trough values following oral and IV administration” value ([5]; 6-hour time-point, α=0.10, p=0.1931) was “not statistically different” and the “statistical comparison of trough values following oral and IV administration” value ([5]; 12-hour time-point, post-dose) was “significantly different”. For the same molecule, the “Difference Between the Means” value ([5]; Co (oral only) vs C6 hr (IV only), N=62) was 0.09456, the concentration at 6 h ([5]; human, plasma, 100 mg, predicted by superposition, IV every six hours, mean F=0.70, N=62, read-out: C6 hr (IV only), mean steady-state plasma concentration at the 6-hour time-point) was 8040 ng/mL and the Co (oral only), mean oral steady-state trough plasma concentration ([5]; observed, oral twice daily dosing, n=62 evaluable subjects) was 8.98 µg/mL.
